One block for each compound: values may come before it.
How the values were obtained:
[1] = molecular target: DAGLβ (hDAGLβ-FLAG) (Homo sapiens (Human), UniProt Q8NCG7); assay: competitive ABPP, membrane proteome of transfected HEK293T cells; type: biochemical
How it was run: (§1)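 HEK293T membrane proteome (1 mg/ml) expressing FLAG-tagged human DAGLα or DAGLβ, treated 30 min at room temperature with compound, then 30 min with HT-01 or FP-Rh probe (1 μM). Bands separated by SDS-PAGE were normalized to DMSO for IC50 by variable-slope fit.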

[2] = molecular target: DAGLα (hDAGLα-FLAG) (Homo sapiens (Human), UniProt Q9Y4D2); assay: as above; type: biochemical
How it was run: as §1

[3] = test system: brain 2-AG and other DAGL-regulated lipids; assay: brain lipid profiles of treated mice by LC-MS; type: in vivo, mouse; conditions: 50 mg/kg i.p., 4 hr post-dosing
Protocol: Brain lipid profiles of mice treated with compounds 14, 17 and control compound 22.
Mice were treated with 50 mg/kg compound (i.p.), followed by lipid profiling using LC-MS at a 4 hr post-dosing. […] This depletion of brain 2-AG in compound 14 and 17-treated mice was dose-dependent (data not shown) and was observed within 2 h after injection. […] The changes in each lipid species were dose-dependent and were absent in compound 22 treated mice (FIGS. 6C, E, G, I, and K).

[4] = molecular target: recombinant human DAGLα (Homo sapiens (Human), UniProt Q9Y4D2); assay: SAG substrate assay (in vitro inhibition of 2-AG biosynthesis), membrane lysates from HEK293T cells; type: biochemical; conditions: any dose tested
Protocol: DAGL modulators were tested for in vitro inhibition of 2-AG biosynthesis using a 1-stearoyl-2-arachidonoyl-sn-glycerol (SAG) substrate assay in DAGL-transfected HEK293 cells.
The SAG substrate assay, as described in Journal of lipid research 56(4):927-935, was performed using the following assay conditions: 0.2 U/mL glycerol kinase (GK), glycerol-3-phosphate oxidase (GPO) and horseradish peroxidase (HRP), 0.125 mM ATP, 10 μM Amplifu™Red, 5% DMSO in a total volume of 200 μL. The assay additionally contained SAG, a DAGL modulator, and membrane lysates from HEK293T cells expressing recombinant human DAGLα or DAGLβ.
Membranes were prepared from HEK293T cells transiently transfected with DAGLα or DAGLβ plasmids encoding for full length DAGLα or DAGLβ, respectively (Angewandte Chemie 52(46):12081-12085; Journal of Medicinal Chemistry 57(15):6610-6622). Briefly, one day prior to transfection, 10^7 cells were seeded in a 15 cm petri dish. The seeded cells were transfected by the addition of a 3:1 mixture of polyethyleneimine (60 μg) and plasmid DNA (20 μg) in 2 mL serum free medium. The medium was refreshed after 24 hr, and after 72 hr the cells were harvested by suspending them in 20 mL medium. The suspension was centrifuged for 10 min at 1000 rpm, and the supernatant was removed. The cell pellet was stored at −80° C. until use. Cell pellets were thawed on ice and suspended in lysis buffer A (20 mM HEPES, 2 mM DTT, 0.25 M sucrose, 1 mM MgCl2, lx protease inhibitor cocktail (Roche cOmplete EDTA free), 25 U/μL Benzonase). The suspension was homogenized by polytrone (3×7 sec) and incubated for 30 min on ice. The suspension was subjected to ultracentrifugation (100,000×g, 30 min, 4° C., Beckman Coulter, Type Ti70 rotor) to yield the cytosolic fraction in the supernatant and the membrane fraction as a pellet. The pellet was resuspended in lysis buffer B (20 mM HEPES, 2 mM DTT, lx protease inhibitor cocktail (Roche cOmplete EDTA free)) and the protein concentration determined with Quick Start Bradford assay (Biorad). The protein fractions were diluted to a total protein concentration of 1 mg/mL and stored in small aliquots at −80° C. until use.

[5] = test system: LPS-induced neuroinflammatory responses (brain lipids, cytokines, body temperature); assay: LPS-induced neuroinflammatory responses in mouse brain; type: in vivo; conditions: mice
Protocol: The effects of pharmacological and genetic inactivation of DAGL activity on neuroinflammatory responses (brain prostaglandin and cytokine production) induced by high-dose lipopolysaccharide treatment was examined.
Mice were treated with compounds 14, 17, control compound 22 or vehicle (50 mg/kg, i.p) for 60-90 min, followed by LPS (20 mg/kg, i.p., 6 hr) or vehicle. The mice were subsequently sacrificed and their brain lipid and cytokine profiles analyzed. […] The LPS-induced elevations in both 2-AG and PGE2 were suppressed in compound 14 and compound 17 treated mice and DAGLα/mice, but not compound 22 treated mice. […] LPS-induced anapyrexia was blunted in compound 14 and 17 treated mice (FIG. 8E) and DAGLα−/− mice (FIG. 8F), but not compound 22 treated mice (FIG. 8E).

[6] = test system: DSI at CA1 pyramidal neuron synapses; assay: depolarization-induced suppression of inhibition (DSI) in hippocampal slices; conditions: 10 μM, bath application 30 min
Protocol: DSI was evaluated at CA1 pyramidal neuron synapses in hippocampal slices. DSI was induced in vehicle-treated hippocampal slices by applying a brief depolarization while evoking […] through stimulation of synaptic inhibitory inputs (FIG. 7C). Bath application of compound 14 (10 μM) and compound 17 (1 μM), but not compound 22 (10 μM), for 30 min before starting electrophysiological recordings blocked hippocampal DSI (FIGS. 7C and D).

[7] = test system: DSE at parallel fiber to Purkinje cell synapses; assay: depolarization-induced suppression of excitation (DSE) in acute cerebellar slices; conditions: 10 μM
Source text: Various forms of synaptic plasticity are regulated by 2-AG signaling, included depolarization-induced suppression of excitation (DSE) and inhibition (DSI). DSE was examined at parallel fiber (PF) to Purkinje cell (PC) synapses in acute cerebellar slices. A brief depolarization of PCs induced robust transient DSE at PF-PC synapses in vehicle treated cerebellar slices (FIG. 7A).

[8] = 50 mg/kg i.p. 60-90 min before LPS 20 mg/kg i.p., 6 hr

DAGLα (hDAGLα-FLAG), sequence (Q9Y4D2 whole entry): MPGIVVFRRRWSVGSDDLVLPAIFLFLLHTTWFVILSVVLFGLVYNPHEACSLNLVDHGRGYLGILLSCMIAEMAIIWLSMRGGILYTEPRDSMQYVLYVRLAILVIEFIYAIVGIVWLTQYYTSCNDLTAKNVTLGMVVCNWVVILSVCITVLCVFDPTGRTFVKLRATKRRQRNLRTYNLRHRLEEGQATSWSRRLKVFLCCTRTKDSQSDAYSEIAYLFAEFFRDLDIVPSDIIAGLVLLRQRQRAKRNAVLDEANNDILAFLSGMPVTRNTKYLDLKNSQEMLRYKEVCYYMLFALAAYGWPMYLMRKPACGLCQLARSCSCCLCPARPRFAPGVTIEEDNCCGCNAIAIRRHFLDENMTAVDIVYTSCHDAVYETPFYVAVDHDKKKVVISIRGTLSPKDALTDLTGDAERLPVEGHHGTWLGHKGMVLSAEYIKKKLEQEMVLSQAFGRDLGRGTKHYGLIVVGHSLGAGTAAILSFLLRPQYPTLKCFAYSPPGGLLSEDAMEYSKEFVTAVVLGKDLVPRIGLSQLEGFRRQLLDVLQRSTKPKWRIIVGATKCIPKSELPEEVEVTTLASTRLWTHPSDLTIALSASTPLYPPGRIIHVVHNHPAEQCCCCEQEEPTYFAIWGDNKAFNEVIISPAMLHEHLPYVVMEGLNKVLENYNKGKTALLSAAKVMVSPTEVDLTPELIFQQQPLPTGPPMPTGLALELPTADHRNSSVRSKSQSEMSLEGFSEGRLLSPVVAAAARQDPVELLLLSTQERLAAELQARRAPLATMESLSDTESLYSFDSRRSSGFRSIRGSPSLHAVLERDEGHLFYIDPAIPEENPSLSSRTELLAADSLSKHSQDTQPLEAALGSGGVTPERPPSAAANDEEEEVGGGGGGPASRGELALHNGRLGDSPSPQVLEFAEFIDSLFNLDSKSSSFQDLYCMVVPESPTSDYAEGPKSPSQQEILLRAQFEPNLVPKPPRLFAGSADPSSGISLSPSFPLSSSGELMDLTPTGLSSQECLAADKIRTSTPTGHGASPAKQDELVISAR
DAGLβ (hDAGLβ-FLAG), sequence (Q8NCG7 whole entry): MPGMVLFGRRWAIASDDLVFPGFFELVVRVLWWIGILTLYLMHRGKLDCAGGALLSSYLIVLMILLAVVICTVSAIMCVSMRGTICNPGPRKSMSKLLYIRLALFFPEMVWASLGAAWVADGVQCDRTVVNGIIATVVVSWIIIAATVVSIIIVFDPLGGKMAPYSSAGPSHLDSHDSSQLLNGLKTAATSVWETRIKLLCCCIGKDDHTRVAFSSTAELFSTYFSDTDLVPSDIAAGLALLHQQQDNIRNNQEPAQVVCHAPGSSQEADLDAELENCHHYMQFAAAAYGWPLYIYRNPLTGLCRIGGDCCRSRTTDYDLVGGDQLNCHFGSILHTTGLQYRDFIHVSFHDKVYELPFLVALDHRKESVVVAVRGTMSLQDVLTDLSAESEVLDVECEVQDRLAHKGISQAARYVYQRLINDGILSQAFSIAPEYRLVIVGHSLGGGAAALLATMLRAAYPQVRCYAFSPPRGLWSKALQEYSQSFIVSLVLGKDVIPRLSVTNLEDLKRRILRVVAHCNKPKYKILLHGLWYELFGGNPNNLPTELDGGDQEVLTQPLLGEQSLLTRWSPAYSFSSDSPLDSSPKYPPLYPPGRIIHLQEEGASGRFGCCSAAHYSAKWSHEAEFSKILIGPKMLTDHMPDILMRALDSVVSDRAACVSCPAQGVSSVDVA
recombinant human DAGLα, sequence (Q9Y4D2 whole entry): as the sequence (Q9Y4D2 whole entry) above

inhibition at 0.8 µM ([1]; 0.8 μM (stated under the cell), read-out: DAGLβ % inh. 0.8 μM): 0 to 25%
inhibition at 0.8 µM ([2]; 0.8 μM (stated under the cell), read-out: DAGLα % inh. 0.8 μM): 0 to 25%
inhibition of DAGLα [4]: did not substantially inhibit
Structure (SMILES): CC(C)(C)OC(=O)N1CCN(C(=O)n2cc(-c3ccc(OC(F)(F)F)cc3)nn2)C(c2ccccc2)C1 (stereo not drawn) [Compound 22, tert-butyl 3-phenyl-4-(4-(4-(trifluoromethoxy)phenyl)-1H-1,2,3-triazole-1-carbonyl)piperazine-1-carboxylate]
brain 2-AG levels [3]: not
brain AA [3]: absent
brain AEA [3]: absent
brain C18:1/C20:4 DAG [3]: absent
brain PGD2 [3]: absent
brain PGE2 [3]: absent
brain SAG [3]: absent
LPS-induced elevation in brain 2-AG [5, 8]: not
LPS-induced elevation in brain PGE2 [5, 8]: not
LPS-induced anapyrexia ([5]; 50 mg/kg i.p. before LPS): not
brain AA under basal control conditions ([5]; 50 mg/kg i.p., no LPS): not
brain PGE2 under basal control conditions ([5]; 50 mg/kg i.p., no LPS): not
effect on hippocampal DSI [6]: not
effect on cerebellar DSE [7]: did not alter

inhibition at 0.0032 µM ([1]; read-out: DAGLβ % inh. 3.2 nM): 0 to 25%
inhibition at 0.0032 µM ([2]; 3.2 nM, read-out: DAGLα % inh. 3.2 nM): 25 to 50%
Structure (SMILES): O=C(N1C[C@@H](OCC2CC2)CC[C@@H]1Cc1ccccc1)n1ncc(-c2ccc(OC(F)(F)F)cc2)n1 [Compound 45, ((2R,5S)-2-benzyl-5-(cyclopropylmethoxy)piperidin-1-yl)(4-(4-(trifluoromethoxy)phenyl)-2H-1,2,3-triazol-2-yl)methanone]

IC50 ([1]; read-out: DAGLβ IC50): 400 to 2000 nM
IC50 ([2]; read-out: DAGLα IC50): 2000 to 10000 nM
Structure (SMILES): O=C(N(CCc1ccccc1)C1CC1)n1ncc(-c2ccc(OC(F)(F)F)cc2)n1 [Compound 129, N-cyclopropyl-N-phenethyl-4-(4-(trifluoromethoxy)phenyl)-2H-1,2,3-triazole-2-carboxamide]

From US10583137B2, “Triazole DAGLα inhibitors” (THE SCRIPPS RESEARCH INSTITUTE, priority 2015, dated 2020)
